3 compounds from ChEMBL document CHEMBL3217602, “20-O-IngenolEZ, a catalytic topoisomerase II inhibitor, specifically inhibits cell proliferation and induces double-strand DNA breaks in BLM-/- cells” (2011) can be followed below.

Broadly, the inhibition is the share of the control response that was lost under treatment.

The test system of test [1] is DT40. As to the kind of experiment: Inhibition of chicken WRN-/- DT40 cell proliferation at 200 uM after 2 days by MTT assay. The test is classed as functional, cell-based. Conditions: Gallus gallus. For orientation: Tetrazolium assays rely on reduction of a dye to a coloured formazan, in cell work by metabolically active cells.
Test [2] deals with DT40. The test is described as follows: Inhibition of chicken WRN-/- DT40 cell proliferation at 2 to 100 uM after 2 days by MTT assay. Format: functional, cell-based. Conditions: Gallus gallus.
The test system of test [3] is DT40. As to the kind of experiment: Induction of double-strand DNA breaks in chicken BLM-/- DT40 cell nuclear fraction assessed as gamma-H2AX phosphorylation at 200 uM after 24 hrs by immunoblot analysis. The test is classed as functional, cell-based. Conditions: Gallus gallus.
Test [4] has as its system DT40. The test is described as follows: Inhibition of chicken wild type DT40 cell proliferation at 2 to 100 uM after 2 days by MTT assay. Format: functional, cell-based. Conditions: Gallus gallus.
In test [5] the test system is DT40. As to the kind of experiment: Inhibition of chicken BLM-/- DT40 cell proliferation at 2 to 60 uM after 2 days by MTT assay. Format: functional, cell-based. Conditions: Gallus gallus.
In test [6] the test system is DT40. The test is described as follows: Induction of apoptosis in chicken BLM-/- DT40 cells at 200 uM after 24 hrs by DAPI staining based immunofluorescence assay. Conditions: Gallus gallus. The test is classed as functional, cell-based.
The nature of test [7]: (§1) Inhibition of chicken wild type DT40 cell proliferation at 200 uM after 2 days by MTT assay. Format: functional. To be noted: Gallus gallus, DT40, 48 h.
Test [8] concerns DT40. The test is described as follows: Inhibition of chicken BLM-/- DT40 cell proliferation at 200 uM after 2 days by MTT assay. The test is classed as functional, cell-based. Conditions: Gallus gallus.
In test [9] the test system is DT40. As to the kind of experiment: Inhibition of chicken BLM-/- DT40 cell proliferation at 100 uM after 2 days by MTT assay. The test is classed as functional, cell-based. Conditions: Gallus gallus.
In test [10] the test system is DT40. The test is described as follows: Induction of double-strand DNA breaks in chicken BLM-/- DT40 cell nuclear fraction assessed as gamma-H2AX phosphorylation at 0.9 uM after 24 hrs by immunoblot analysis. The test is classed as functional, cell-based. To be noted: Gallus gallus. (In general: In western blotting, separated proteins are transferred to a membrane and probed.)

Test [11] can be described thus: Induction of apoptosis in chicken BLM-/- DT40 cells at 0.9 uM after 24 hrs by DAPI staining based immunofluorescence assay. The test is classed as functional, Gallus gallus.
Test [12] has as its system DT40. Described as §1. Format: functional. To be noted: Gallus gallus.

The source made the active and inactive calls. The rule behind the calls is not given here.

For the compound `CCCCC/C=C\C=C\C(=O)OCC1=C[C@@H]2C(=O)[C@]3(C=C(C)[C@H](O)[C@@]3(O)[C@@H]1O)[C@H](C)C[C@@H]1[C@H]2C1(C)C`, the inhibition result in test [1], in [2], in [4] and in test [5] was “inactive” in each case. The outcome in test [3] and in test [6] was Active. This compound also came in with an inhibition at 200 µM in test [7] of 50%. For the same compound, the inhibition result in test [8] and in [9] was “Active” throughout.
Regarding `COc1cccc2c1C(=O)c1c(O)c3c(c(O)c1C2=O)C[C@@](O)(C(=O)CO)C[C@@H]3O[C@H]1C[C@H](N)[C@H](O)[C@H](C)O1` [DOXORUBICIN], the outcome in test [10] was Active. Further, the Activity in test [11] amounted to 60%.
Turning to `C[C@H]([C@H](C)N1CC(=O)NC(=O)C1)N1CC(=O)NC(=O)C1`, the inhibition entry in test [1], in test [12] and in [8] was “Active” throughout.
